Data published in patent publication US8030478B2, “Method for nucleic acid replication and novel artificial base pairs” (priority 2005, dated 2011).
Read-outs that look alike come from different tables or passages of the source.

How the values were obtained:
T7 RNA polymerase = T7 RNA polymerase (Escherichia phage T7, UniProt P00573); conditions: 2 mM Bio-UTP, 2 mM ATP, GTP and CTP
Method: 152-mer RNAs transcribed with Bio-PaTP from DNA6 template obtained by ligation and DNAcont2 template obtained by PCR amplification (20 cycles), as well as 152-mer RNAs transcribed with biotinylated UTP (Bio-UTP) from DNAcont5 and DNAcont6 templates obtained by ligation were mixed with streptavidin. Biotinylated RNA-streptavidin complexes were separated from free RNAs on a 7% polyacrylamide-7 M urea gel, and the percentages (yields) of the complexes were determined from their band intensity.
Transcription (20 μl) was performed for 6 hours at 37° C. using 3 μCi [γ-^32P]GTP, 2 mM each natural NTP, 0-4 mM Bio-PaTP (biotinylated Pa substrate: chemically synthesized as shown in Example IV), and 30 nM template (DNA6 and DNAcont2 (see FIG. 6), obtained by both ligation and PCR amplification).
For control reactions using DNAcont5 and DNAcont6 obtained by ligation (see FIG. 6), transcription was performed only with 2 mM ATP, GTP and CTP in the presence or absence of 2 mM Bio-UTP (biotin-16-uridine-5′-triphosphate, Roche Applied Science). The products were analyzed and purified on a 7-10% polyacrylamide-7 M urea gel.
The biotinylated RNA transcripts were detected by gel shift assay using streptavidin. A mixture (10 μl) of 2 pmol ^32P-labeled transcript and 100 pmol streptavidin (Promega) was incubated at 20° C. for 1 hour in 10 mM Tris-HCl buffer (pH 7.6) containing 50 mM NaCl and 10 mM EDTA. The biotinylated RNA-streptavidin complexes were analyzed by electrophoresis on a 7% polyacrylamide-7 M urea gel. To determine the position where Bio-Pa was introduced, each RNA (152-mer) was labeled with [γ-^32P]ATP (Perkin Elmer) after 5′-dephosphorylation with calf intestinal alkaline phosphatase (Takara). The labeled RNA was partially digested with RNase T1 at 55° C. for 12 minutes in 13.3 mM sodium citrate buffer (pH 5.0) containing 4.7 M urea, 0.7 mM EDTA and 0.17 mg/ml E. coli tRNA, or with alkali at 90° C. for 15 minutes in 32 mM sodium carbonate buffer (pH 9.1) containing 0.6 mM EDTA. The alkali-digested RNA solution (9 μl) was mixed with 11 μl of 20 mM Tris-HCl buffer (pH 7.6) containing 150 mM NaCl, and the mixture (10 μl) was then incubated with streptavidin magnetic beads (0.4 mg) (New England BioLabs) for 5 minutes at room temperature to capture the biotinylated RNA. An aliquot (5 μl) of the supernatant was analyzed together with other digested samples on a 10% polyacrylamide-7 M urea gel.

[1] = target: T1, Klenow fragment lacking exonuclease activity (KF exo−) (Escherichia coli, UniProt P00582, D355A/E357A); type: biochemical, E. coli; conditions: for Efficiency (Vmax/KM) / Km / Vmax: 37° C.; for inserted products (KM, Vmax n.d.): 20 minutes, 1500 μM nucleoside 5′-triphosphate, 50 nM enzyme
T1 construct: enzyme solution of the Klenow fragment lacking exonuclease activity (KF exo^−, Amersham USB); purchased Amersham USB
Method: The single nucleotide insertion experiment was performed as described in documents (Non-patent Documents 30-32). A primer (20-mer) labeled with 6-carboxylfluorescein at the 5′-end was annealed with template DNA (35-mer) by heating at 95° C. and slow cooling to 4° C. in 100 mM Tris-HCl (pH 7.5) buffer containing 20 mM MgCl2, 2 mM DTT and 0.1 mg/ml bovine serum albumin. The primer-template duplex solution (10 μM, 5 μl) was mixed with 2 μl enzyme solution of the Klenow fragment lacking exonuclease activity (KF exo^−, Amersham USB). After the mixture was incubated for 2 minutes, each dNTP solution (3 μl) was added to this solution to start the reaction at 37° C. The amount of the enzyme used (5-50 nM), the reaction time (1-35 minutes) and the gradient concentration of each dNTP (0.3-1500 μM) were adjusted to ensure conditions giving 25% or less products. The reaction was stopped with 10 μl stop solution (95% formamide and 20 mM EDTA), and the mixture was immediately heated at 75° C. for 3 minutes. The diluted products were analyzed in an automated ABI377 DNA sequencer equipped with GeneScan software (version 3.0) (Non-patent Document 32). The relative velocity (v0) was calculated by dividing the extent of reaction by the reaction time, and then normalized to the enzyme concentration (20 nM) for the various enzyme concentrations used. Kinetic parameters (KM and Vmax) were obtained from Hanes-Woolf plots of [dNTP]/v0 against [dNTP].
Each parameter was averaged from 3 to 8 data sets.

T1 sequence (P00582 324-928 D355A/E357A): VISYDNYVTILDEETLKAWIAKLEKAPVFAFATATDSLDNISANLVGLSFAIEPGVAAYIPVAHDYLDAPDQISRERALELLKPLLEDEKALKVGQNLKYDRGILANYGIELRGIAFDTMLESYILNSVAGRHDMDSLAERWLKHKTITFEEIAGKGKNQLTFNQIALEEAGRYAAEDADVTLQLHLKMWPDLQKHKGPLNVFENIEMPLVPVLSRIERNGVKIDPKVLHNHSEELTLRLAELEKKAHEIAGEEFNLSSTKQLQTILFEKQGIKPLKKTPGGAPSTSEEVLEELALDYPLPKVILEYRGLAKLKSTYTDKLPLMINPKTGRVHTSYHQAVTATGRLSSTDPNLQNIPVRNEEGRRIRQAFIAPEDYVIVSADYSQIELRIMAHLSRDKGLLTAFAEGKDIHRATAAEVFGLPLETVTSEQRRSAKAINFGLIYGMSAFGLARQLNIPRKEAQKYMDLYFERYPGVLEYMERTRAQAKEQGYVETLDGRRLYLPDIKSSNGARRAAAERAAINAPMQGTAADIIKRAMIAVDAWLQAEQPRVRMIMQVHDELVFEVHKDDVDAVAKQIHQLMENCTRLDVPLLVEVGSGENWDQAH
T7 RNA polymerase, sequence (P00573 whole entry, the tested form may be a part): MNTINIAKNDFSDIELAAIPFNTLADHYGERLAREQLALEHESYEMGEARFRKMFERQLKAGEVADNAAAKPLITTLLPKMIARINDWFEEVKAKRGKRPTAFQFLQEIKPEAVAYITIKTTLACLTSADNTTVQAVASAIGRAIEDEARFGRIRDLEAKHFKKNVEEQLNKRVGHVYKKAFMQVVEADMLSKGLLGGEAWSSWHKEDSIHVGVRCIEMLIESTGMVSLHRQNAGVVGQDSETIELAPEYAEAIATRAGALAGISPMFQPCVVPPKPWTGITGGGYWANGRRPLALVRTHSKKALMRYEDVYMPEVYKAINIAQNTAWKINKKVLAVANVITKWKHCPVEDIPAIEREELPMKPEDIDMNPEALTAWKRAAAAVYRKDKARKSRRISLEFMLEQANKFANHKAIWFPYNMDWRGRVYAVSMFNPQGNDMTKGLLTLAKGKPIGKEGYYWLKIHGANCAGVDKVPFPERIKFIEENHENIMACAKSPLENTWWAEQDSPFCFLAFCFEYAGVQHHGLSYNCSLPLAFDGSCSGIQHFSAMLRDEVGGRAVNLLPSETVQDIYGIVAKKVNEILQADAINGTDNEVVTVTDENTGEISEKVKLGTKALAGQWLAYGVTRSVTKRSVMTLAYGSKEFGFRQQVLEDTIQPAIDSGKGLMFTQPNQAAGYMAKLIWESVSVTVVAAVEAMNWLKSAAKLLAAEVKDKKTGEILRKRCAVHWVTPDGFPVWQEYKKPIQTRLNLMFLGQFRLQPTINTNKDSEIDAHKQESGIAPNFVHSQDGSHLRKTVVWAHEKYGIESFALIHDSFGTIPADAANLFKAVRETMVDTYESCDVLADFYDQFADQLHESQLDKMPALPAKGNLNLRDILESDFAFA

Q: With “biotin-16-uridine-5′-triphosphate [Bio-UTP, reference compound]” as the compound, how does the “biotinylation of transcripts by incorporation opposite A” value (T7 RNA polymerase; DNAcont5 template) read?
A: completely biotinylated

Q: What about the “transcripts biotinylated by misincorporation opposite bases G, C and T” value (T7 RNA polymerase; DNAcont6 template) of the same compound?
A: 21%

Q: What does the source list for `Cc1cn([C@H]2C[C@H](O)[C@@H](COP(=O)(O)OP(=O)(O)OP(=O)(O)O)O2)c(=O)[nH]c1=O` [dTTP, reference compound]?
A: Efficiency (Vmax/KM) ([1]; template (N) = A, temp35N-1): 4.0 × 10^6 % min^−1M^−1; Km ([1]; template (N) = A, temp35N-1): 0.7 µM; Vmax ([1]; template (N) = A, temp35N-1): 2.8 % min^−1; Efficiency (Vmax/KM) ([1]; template (N) = Ds, temp35N-1): 1.9 × 10^3 % min^−1M^−1; Km ([1]; template (N) = Ds, temp35N-1): 220 µM; Vmax ([1]; template (N) = Ds, temp35N-1): 0.41 % min^−1; Efficiency (Vmax/KM) ([1]; template (N) = G, temp35N-1): 2.1 × 10^3 % min^−1M^−1; Km ([1]; template (N) = G, temp35N-1): 140 µM; Vmax ([1]; template (N) = G, temp35N-1): 0.29 % min^−1; Efficiency (Vmax/KM) ([1]; template (N) = Pa, temp35N-2): 1.1 × 10^2 % min^−1M^−1; Km ([1]; template (N) = Pa, temp35N-2): 880 µM; Vmax ([1]; template (N) = Pa, temp35N-2): 0.097 % min^−1; Efficiency (Vmax/KM) ([1]; template (N) = Pa′, temp35N-2): 1.0 × 10^2 % min^−1M^−1; Km ([1]; template (N) = Pa′, temp35N-2): 1400 µM; Vmax ([1]; template (N) = Pa′, temp35N-2): 0.14 % min^−1

Q: How did the “Efficiency (Vmax/KM)” value ([1]; template (N) = A, temp35N-1) turn out when `Nc1ccn([C@H]2C[C@H](O)[C@@H](COP(=O)(O)OP(=O)(O)OP(=O)(O)O)O2)c(=O)n1` [dCTP, reference compound] was run?
A: 1.8 × 10^3 % min^−1M^−1

Q: What about the Km ([1]; template (N) = A, temp35N-1) of the same compound?
A: 1200 µM

Q: What about the Vmax ([1]; template (N) = A, temp35N-1) of the same compound?
A: 2.2 % min^−1

Q: And the “Efficiency (Vmax/KM)” value ([1]; template (N) = Ds, temp35N-1)?
A: 8.3 × 10^2 % min^−1M^−1

Q: What about the Km ([1]; template (N) = Ds, temp35N-1) of the same compound?
A: 410 µM

Q: What about the Vmax ([1]; template (N) = Ds, temp35N-1) of the same compound?
A: 0.34 % min^−1

Q: And the “Efficiency (Vmax/KM)” value ([1]; template (N) = G, temp35N-1)?
A: 2.3 × 10^7 % min^−1M^−1

Q: What about the Km ([1]; template (N) = G, temp35N-1) of the same compound?
A: 0.24 µM

Q: What about the Vmax ([1]; template (N) = G, temp35N-1) of the same compound?
A: 5.5 % min^−1

Q: What about the “inserted products (KM, Vmax n.d.)” value ([1]; template (N) = Pa, temp35N-2) of the same compound?
A: n.d.^c (Minimal inserted products (<2%) were detected after incubation for 20 minutes with 1500 μM nucleoside 5′-triphosphate and 50 nM enzyme.)

Q: What about the “inserted products (KM, Vmax n.d.)” value ([1]; template (N) = Pa′, temp35N-2) of the same compound?
A: n.d. (Minimal inserted products (<2%) were detected after incubation for 20 minutes with 1500 μM nucleoside 5′-triphosphate and 50 nM enzyme.)

Q: `Nc1nc2c(ncn2[C@H]2C[C@H](O)[C@@H](COP(=O)(O)OP(=O)(O)OP(=O)(O)O)O2)c(=O)[nH]1` [dGTP, reference compound] was tested. Which “Efficiency (Vmax/KM)” value ([1]; template (N) = C, temp35N-2) did it give?
A: 7.0 × 10^6 % min^−1M^−1

Q: What about the Km ([1]; template (N) = C, temp35N-2) of the same compound?
A: 2.3 µM

Q: What about the Vmax ([1]; template (N) = C, temp35N-2) of the same compound?
A: 16 % min^−1

Q: And the “inserted products (KM, Vmax n.d.)” value ([1]; template (N) = Ds, temp35N-1)?
A: n.d.^c (Minimal inserted products (<2%) were detected after incubation for 20 minutes with 1500 μM nucleoside 5′-triphosphate and 50 nM enzyme.)

Q: What about the “Efficiency (Vmax/KM)” value ([1]; template (N) = Pa, temp35N-2) of the same compound?
A: 8.8 × 10^2 % min^−1M^−1

Q: And the Km ([1]; template (N) = Pa, temp35N-2)?
A: 480 µM

Q: And the Vmax ([1]; template (N) = Pa, temp35N-2)?
A: 0.42 % min^−1

Q: And the “Efficiency (Vmax/KM)” value ([1]; template (N) = Pa′, temp35N-2)?
A: 5.5 × 10^2 % min^−1M^−1

Q: And the Km ([1]; template (N) = Pa′, temp35N-2)?
A: 800 µM

Q: What about the Vmax ([1]; template (N) = Pa′, temp35N-2) of the same compound?
A: 0.44 % min^−1

Q: What about the “Efficiency (Vmax/KM)” value ([1]; template (N) = T, temp35N-2) of the same compound?
A: 2.9 × 10^3 % min^−1M^−1

Q: And the Km ([1]; template (N) = T, temp35N-2)?
A: 420 µM

Q: What about the Vmax ([1]; template (N) = T, temp35N-2) of the same compound?
A: 12 % min^−1
